{"source": "PubChem BioAssay (NCI)", "assay_in_all_cases": "inhibition of tumour cell growth, NCI panel, 384-well format", "key": {"UACC-62 melanoma": {"system": "UACC-62 melanoma"}, "COLO 205 colon": {"system": "COLO 205 colon"}, "HL-60(TB) leukemia": {"system": "HL-60(TB) leukemia"}, "NCI-H23 lung": {"system": "NCI-H23 lung"}, "IGROV1 ovarian": {"system": "IGROV1 ovarian"}, "DU-145 prostate": {"system": "DU-145 prostate"}, "HS 578T breast": {"system": "HS 578T breast"}, "MDA-MB-468 breast": {"system": "MDA-MB-468 breast"}, "M14 melanoma": {"system": "M14 melanoma"}, "NCI-H226 lung": {"system": "NCI-H226 lung"}, "OVCAR-8 ovarian": {"system": "OVCAR-8 ovarian"}, "SNB-19 CNS": {"system": "SNB-19 CNS"}, "786-0 renal": {"system": "786-0 renal"}, "HCT-15 colon": {"system": "HCT-15 colon"}, "NCI-H460 NSCLC": {"system": "NCI-H460 NSCLC"}, "HT29 colon": {"system": "HT29 colon"}, "A549 NSCLC": {"system": "A549 NSCLC"}, "RXF 393 renal": {"system": "RXF 393 renal"}, "LOX IMVI melanoma": {"system": "LOX IMVI melanoma"}, "HCT-116 colon": {"system": "HCT-116 colon"}, "MDA-MB-231 breast": {"system": "MDA-MB-231 breast"}, "NCI/ADR-RES ovarian": {"system": "NCI/ADR-RES ovarian"}, "NCI-H322M lung": {"system": "NCI-H322M lung"}, "SNB-75 CNS": {"system": "SNB-75 CNS"}, "SF-295 CNS": {"system": "SF-295 CNS"}, "HCC-2998 colon": {"system": "HCC-2998 colon"}, "MOLT-4 leukemia": {"system": "MOLT-4 leukemia"}, "TK-10 renal": {"system": "TK-10 renal"}, "OVCAR-5 ovarian": {"system": "OVCAR-5 ovarian"}}, "note": "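Abbreviation: GI50, concentration required for 50% inhibition of growth. TGI is the concentration that stops growth completely.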", "data": [{"compound": "O=C(c1ccc(F)c(F)c1Nc1ccc(I)cc1F)N1CC(O)([C@H]2CCCCN2)C1", "values": [{"measurement": "GI50", "setting": "UACC-62 melanoma", "value": 104, "unit": "nM"}, {"measurement": "TGI", "setting": "UACC-62 melanoma", "value": 378, "unit": "nM"}, {"measurement": "GI50", "setting": "COLO 205 colon", "value": 101, "unit": "nM"}, {"measurement": "TGI", "setting": "COLO 205 colon", "value": 589, "unit": "nM"}, {"measurement": "GI50", "setting": "HL-60(TB) leukemia", "value": 212, "unit": "nM"}, {"measurement": "TGI", "setting": "HL-60(TB) leukemia", "value": 1260, "unit": "nM"}, {"measurement": "GI50", "setting": "NCI-H23 lung", "value": 422, "unit": "nM"}, {"measurement": "TGI", "setting": "NCI-H23 lung", "value": 2050, "unit": "nM"}, {"measurement": "GI50", "setting": "IGROV1 ovarian", "value": 500, "unit": "nM"}, {"measurement": "TGI", "setting": "IGROV1 ovarian", "value": 2990, "unit": "nM"}, {"measurement": "GI50", "setting": "DU-145 prostate", "value": 3810, "unit": "nM"}, {"measurement": "TGI", "setting": "DU-145 prostate", "value": 14800, "unit": "nM"}, {"measurement": "GI50", "setting": "HS 578T breast", "value": 4160, "unit": "nM"}, {"measurement": "TGI", "setting": "HS 578T breast", "value": 16300, "unit": "nM"}, {"measurement": "GI50", "setting": "MDA-MB-468 breast", "value": 2730, "unit": "nM"}, {"measurement": "TGI", "setting": "MDA-MB-468 breast", "value": 5070, "unit": "nM"}, {"measurement": "GI50", "setting": "M14 melanoma", "value": 51.2, "unit": "nM"}, {"measurement": "TGI", "setting": "M14 melanoma", "value": 220, "unit": "nM"}, {"measurement": "GI50", "setting": "NCI-H226 lung", "value": 1640, "unit": "nM"}, {"measurement": "TGI", "setting": "NCI-H226 lung", "value": 10200, "unit": "nM"}, {"measurement": "GI50", "setting": "OVCAR-8 ovarian", "value": 6520, "unit": "nM"}, {"measurement": "TGI", "setting": "OVCAR-8 ovarian", "value": 19600, "unit": "nM"}, {"measurement": "GI50", "setting": "SNB-19 CNS", "value": 4050, "unit": "nM"}, {"measurement": "TGI", "setting": "SNB-19 CNS", "value": 17300, "unit": "nM"}, {"measurement": "GI50", "setting": "786-0 renal", "value": 1240, "unit": "nM"}, {"measurement": "TGI", "setting": "786-0 renal", "value": 2590, "unit": "nM"}, {"measurement": "GI50", "setting": "HCT-15 colon", "value": 3330, "unit": "nM"}, {"measurement": "TGI", "setting": "HCT-15 colon", "value": 14500, "unit": "nM"}, {"measurement": "GI50", "setting": "NCI-H460 NSCLC", "value": 995, "unit": "nM"}, {"measurement": "TGI", "setting": "NCI-H460 NSCLC", "value": 2280, "unit": "nM"}, {"measurement": "GI50", "setting": "HT29 colon", "value": 185, "unit": "nM"}, {"measurement": "TGI", "setting": "HT29 colon", "value": 1350, "unit": "nM"}, {"measurement": "GI50", "setting": "A549 NSCLC", "value": 807, "unit": "nM"}, {"measurement": "TGI", "setting": "A549 NSCLC", "value": 2610, "unit": "nM"}, {"measurement": "GI50", "setting": "RXF 393 renal", "value": 1510, "unit": "nM"}, {"measurement": "TGI", "setting": "RXF 393 renal", "value": 3180, "unit": "nM"}, {"measurement": "GI50", "setting": "LOX IMVI melanoma", "value": 389, "unit": "nM"}, {"measurement": "TGI", "setting": "LOX IMVI melanoma", "value": 1660, "unit": "nM"}, {"measurement": "GI50", "setting": "HCT-116 colon", "value": 615, "unit": "nM"}, {"measurement": "TGI", "setting": "HCT-116 colon", "value": 2060, "unit": "nM"}, {"measurement": "GI50", "setting": "MDA-MB-231 breast", "value": 477, "unit": "nM"}, {"measurement": "TGI", "setting": "MDA-MB-231 breast", "value": 3630, "unit": "nM"}, {"measurement": "GI50", "setting": "NCI/ADR-RES ovarian", "value": 9210, "unit": "nM"}, {"measurement": "TGI", "setting": "NCI/ADR-RES ovarian", "value": 21300, "unit": "nM"}, {"measurement": "GI50", "setting": "NCI-H322M lung", "value": 1510, "unit": "nM"}, {"measurement": "TGI", "setting": "NCI-H322M lung", "value": 13700, "unit": "nM"}, {"measurement": "GI50", "setting": "SNB-75 CNS", "value": 1620, "unit": "nM"}, {"measurement": "TGI", "setting": "SNB-75 CNS", "value": 4340, "unit": "nM"}, {"measurement": "GI50", "setting": "SF-295 CNS", "value": 13400, "unit": "nM"}, {"measurement": "TGI", "setting": "SF-295 CNS", "value": 26300, "unit": "nM"}, {"measurement": "GI50", "setting": "HCC-2998 colon", "value": 200, "unit": "nM"}, {"measurement": "TGI", "setting": "HCC-2998 colon", "value": 1210, "unit": "nM"}, {"measurement": "GI50", "setting": "MOLT-4 leukemia", "value": 1620, "unit": "nM"}, {"measurement": "TGI", "setting": "MOLT-4 leukemia", "value": 3000, "unit": "nM"}, {"measurement": "GI50", "setting": "TK-10 renal", "value": 3120, "unit": "nM"}, {"measurement": "TGI", "setting": "TK-10 renal", "value": 11800, "unit": "nM"}, {"measurement": "GI50", "setting": "OVCAR-5 ovarian", "value": 668, "unit": "nM"}, {"measurement": "TGI", "setting": "OVCAR-5 ovarian", "value": 11900, "unit": "nM"}]}]}
